In US10258639B2, “Methods for treating insulin resistance and for sensitizing patients to GLP1 agonist therapy” (Research Development Foundation, priority 2014, dated 2019):

Test system: INS1 cells
Experiment: RNAseq of INS1 cells infected with ACREB compared to GFP and stimulated with FSK
Type: cell-based, rat
Design: Irs2 RNAseq value, FSK / MafA RNAseq value, FSK / Nr4a2 RNAseq value, FSK / Diras2 RNAseq value, FSK: unit not given here
Settings: for Diras2 fold induction / Irs2 fold induction / MafA fold induction / Nr4a2 fold induction: FSK vs control; for Diras2 RNAseq value, FSK / Irs2 RNAseq value, FSK / MafA RNAseq value, FSK / Nr4a2 RNAseq value, FSK: stimulated with FSK
Protocol: Transcriptome-wide studies were performed to identify CREB target genes that promote insulin expression and secretion. […] INS-1 insulinoma cells were cultured in RPMI (corning cellgro) containing 10% fetal bovine serum (Gemini Bio Products), 100 μg/mL penicillin-streptomycin and 1 mM sodium pyruvate (corning cellgro). MIN6 cells were grown in DMEM (corning cellgro) with 10% FBS, 100 μg/mL penicillin-streptomycin and 70 uM beta-mercaptoethanol. For chronic glucose experiments, cells were maintained under low (2.8 mM) or high (20 mM) glucose for 3 days. Exendin-4 (10 nM), Forskolin (10 μM), KCl (40 mM), DMOG (1 mM) and rapamycin (50 nM) were added to cells as indicated. Cellular cAMP levels were measured using an ELISA kit (Cayman Chemical Company) according to manufacturer's instructions. Total RNAs from cells or primary islets were extracted using Trizol and cDNA was generated using the Transcriptor First Strand cDNA Synthesis kit (Roche Applied Science). cDNAs were quantified on a lightcycler 480 instrument (Roche Applied Science). Gene expression data were presented relative to the expression of housekeeping gene L32 (rat samples) and 18S (mouse and human islets). RNA-Seq libraries were prepared using the mRNA isolation protocol and the NEBNext-Ultra kits from New England Biolabs following the manufacturer's protocols. Libraries were quantitated by Qubit (Invitrogen), and run on a MiSeq instrument with paired-end 75 bp reads using v3 chemistry (Illumina) Data were analyzed by tophat2 and cuffdiff against the mouse mm10 genome build. The GEO accession number for RNAseq studies reported in the paper is GSE60158.

## C=C[C@@]1(C)CC(=O)[C@]2(O)[C@@]3(C)[C@@H](O)CCC(C)(C)[C@@H]3[C@H](O)[C@H](OC(C)=O)[C@@]2(C)O1 [FSK, Forskolin]
INS1 cells infected with ACREB
  Diras2 fold induction: 1.7 fold
  Irs2 fold induction: 2.3 fold
  MafA fold induction: 3.7 fold
  Nr4a2 fold induction: 6.3 fold
  Diras2 RNAseq value, FSK: 109.5
  Irs2 RNAseq value, FSK: 38.8
  MafA RNAseq value, FSK: 90.2
  Nr4a2 RNAseq value, FSK: 5.5
INS1 cells infected with GFP
  Diras2 fold induction: 11.5 fold
  Irs2 fold induction: 5.6 fold
  MafA fold induction: 8.7 fold
  Nr4a2 fold induction: 56.6 fold
  Diras2 RNAseq value, FSK: 519.7
  Irs2 RNAseq value, FSK: 289.9
  MafA RNAseq value, FSK: 474.4
  Nr4a2 RNAseq value, FSK: 106.5
